# Laboratory results as given in patent US5376638A (Amylin Pharmaceuticals, Inc., priority 1992, dated 1994).
# “Also recorded” adds a separate entry of the source. Where no end group is shown, it is not given here.
# How the values were obtained:
# [1] = system: amylin-induced hypocalcemia; experiment: amylin-induced hypocalcemia with antagonist infusion; format: in vivo; conditions: 1.5 mg + 3 mg/hr infusion, FIG. 4
# CGRP receptors = CGRP receptors (Homo sapiens, UniProt O60894+Q16602); experiment: affinity for CGRP receptors in vitro; format: binding
# [2] = plasma lactate and glucose after subcutaneous rat amylin in anesthetized rats; format: in vivo, Male Harlan Sprague Dawley rats; conditions: 0.5 mg i.v. bolus + 1 mg/hr infusion before 100 μg s.c. rat amylin
# vascular CGRP1 receptor = biological target: T1, vascular CGRP1 receptor (Rattus norvegicus, UniProt Q63118+Q9JJ74); experiment: hypotensive response to intravenous amylin in vivo; conditions: three times the dose used in this study
# T1 construct: from tissue; host or cells: vasculature of the intact animal (in vivo blood pressure response)
# plasma renin activity = plasma renin activity after subcutaneous rat amylin in anesthetized rats; format: in vivo, Male Harlan Sprague Dawley rats; conditions: 0.5 mg i.v. bolus + 1 mg/hr infusion before 100 μg s.c. rat amylin, n=1, FIG. 3
# Experimental: (§1) Male Harlan Sprague Dawley rats were housed at 22.7°±0.8° C. in a 12:12 hour light:dark cycle (experiments being performed during the light cycle) and fed and watered ad libitum (Diet LM-485, Teklad, Madison, Wis.). Animals used were aged 87-94 days and weighed 353-392 g. They were deprived of food for ~20 hours prior to experimentation.
# Anesthesia was induced with 5% halothane, maintained at 2% during surgery and at 0.8-1% during recordings. Tracheotomy and cannulation of the right femoral artery and saphenous vein were performed. […] Colonic temperature was measured using a thermistor probe and controller (Model 73A, YSI, Yellow Springs, Ohio) which provided closed-loop control of core temperature by switching a heated operating table. […]
# The remainder was frozen at -20° C. for measurement of plasma renin activity. Plasma renin activity was measured using the Gammacoat™ [^125 I] radioimmunoassay kit (Incstar Corp, Stillwater, Minn.) modified to accomodate small sample volumes. The assay system measured the renin-catalysed rate of generation of angiotensin-I in the presence of phenylmethylsulfonyl fluoride (PMSF) to prevent its proteolytic breakdown and/or conversion to angiotensin-II. Angiotensin-I generated in 90 minutes at 37° C. was then detected by specific radioimmunoassay with less than 0.02% cross reactivity to angiotensin-II, angiotensin-III or tetradecapeptide (renin substrate). […]
# [3] = system: insulin-stimulated glycogen synthesis in soleus muscle; experiment: soleus muscle assay (insulin-stimulated glycogen synthesis); parameters: species or system rat; conditions: for amylin antagonist action in the soleus muscle assay: in the presence of 100 nM rat amylin
# Experimental: Concentrations of peptide dissolved in carrier-free buffers are determined by quantitative amino acid analysis, as described therein. The ability of compounds to act as antagonists in this assay is determined by measuring IC50 values. Standard errors are determined by fitting of sigmoidal dose response curves using a four parameter logistic equation (De Lean, A., Munson, P. J., Guardabasso, V. and Rodbard, D. (1988) ALLFIT, Version 2.7, National Institute of Child Health and Human Development, N.I.H. Bethesda, Md., 1 diskette). […] Similar results were obtained with the other antagonist compounds listed above.
# [4] = fed rats, antagonist preinfusion; cited from earlier work
# [5] = mean arterial pressure after amylin injection in rats; format: in vivo, Male Harlan Sprague Dawley rats; conditions: 100 μg rat amylin s.c., FIG. 1c
# Experimental: as §1
# Anesthesia was induced with 5% halothane, maintained at 2% during surgery and at 0.8-1% during recordings. Tracheotomy and cannulation of the right femoral artery and saphenous vein were performed. The femoral arterial line was connected to a pressure transducer (Spectramed P23XL transducer, Model 13-4615-58 amplifier, Gould, Cleveland, Ohio) and perfused with heparinized saline (2 U/ml) at 3.0 ml/hr. Colonic temperature was measured using a thermistor probe and controller (Model 73A, YSI, Yellow Springs, Ohio) which provided closed-loop control of core temperature by switching a heated operating table. The signal for mean arterial pressure was periodically sampled and stored with 12-bit precision at 1 Hz using a computerized data acquisition system (DT2801A A/D converters, DataTranslation, Marlboro, Mass.; AST Premium 386 computer, AST Research, Irvine, Calif.; Labtech Notebook software, Laboratory Technologies Corp, Wilmington, Mass.). […]
# Sequence of CGRP receptors (Q16602 23-461): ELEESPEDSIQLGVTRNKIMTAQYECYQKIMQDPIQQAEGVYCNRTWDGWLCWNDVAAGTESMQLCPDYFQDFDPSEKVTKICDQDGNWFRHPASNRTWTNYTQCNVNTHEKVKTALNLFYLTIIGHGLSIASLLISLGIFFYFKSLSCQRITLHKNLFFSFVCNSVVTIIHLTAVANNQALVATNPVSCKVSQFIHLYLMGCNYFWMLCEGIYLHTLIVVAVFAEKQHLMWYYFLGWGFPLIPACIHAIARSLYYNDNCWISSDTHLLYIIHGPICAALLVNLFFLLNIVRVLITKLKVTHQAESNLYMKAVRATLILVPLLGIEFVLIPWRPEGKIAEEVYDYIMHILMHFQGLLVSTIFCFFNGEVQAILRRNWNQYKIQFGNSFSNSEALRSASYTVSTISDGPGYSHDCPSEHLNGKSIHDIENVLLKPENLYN
# Sequence of CGRP receptors (O60894 27-148 partner): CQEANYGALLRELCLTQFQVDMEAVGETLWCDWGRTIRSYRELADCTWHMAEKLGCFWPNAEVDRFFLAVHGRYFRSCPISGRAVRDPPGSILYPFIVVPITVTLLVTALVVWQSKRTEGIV
# T1 sequence (Q63118 24-464): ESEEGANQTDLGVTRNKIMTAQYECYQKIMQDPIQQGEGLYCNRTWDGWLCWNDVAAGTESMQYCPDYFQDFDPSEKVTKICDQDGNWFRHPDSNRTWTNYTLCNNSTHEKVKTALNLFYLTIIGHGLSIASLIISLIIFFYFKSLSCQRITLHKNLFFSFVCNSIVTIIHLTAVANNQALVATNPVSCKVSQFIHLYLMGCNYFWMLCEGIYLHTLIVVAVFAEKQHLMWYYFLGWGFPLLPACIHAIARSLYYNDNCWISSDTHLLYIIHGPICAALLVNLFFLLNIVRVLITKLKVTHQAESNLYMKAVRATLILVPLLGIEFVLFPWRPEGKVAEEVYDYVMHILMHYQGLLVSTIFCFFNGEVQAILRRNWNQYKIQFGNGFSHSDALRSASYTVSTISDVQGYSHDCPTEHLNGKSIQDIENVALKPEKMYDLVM
# T1 sequence (Q9JJ74 27-148 partner): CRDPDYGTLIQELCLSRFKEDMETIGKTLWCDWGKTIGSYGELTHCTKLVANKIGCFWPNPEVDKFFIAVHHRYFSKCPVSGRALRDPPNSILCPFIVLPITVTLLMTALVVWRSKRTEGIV
substance,measurement,setting,value
acetyl-^30 Asn^32 Tyr^8-32 calcitonin(salmon),prevention of amylin-induced hypocalcemia,[1],did not prevent
same,affinity for CGRP receptors in vitro,CGRP receptors,low affinity
same,amylin-induced increase in plasma glucose after antagonist infusion,[2],prevented
same,amylin-induced increase in plasma lactate after antagonist infusion,[2],prevented
same,block of the hypotensive response to intravenous amylin,vascular CGRP1 receptor,does not fully block
same,amylin-induced elevation of plasma renin activity after antagonist preinfusion,plasma renin activity,no amylin-induced elevation
"^8-37 amylin (ATQRLANFLVHSSNNFGAILSSTNVGSNTY; ends and bridges not checked; UniProt P10997 41-70, looked up, fragment) [^ 8-37 amylin, amylin receptor antagonist]",agonist activity in the soleus muscle assay,[3],negligible agonist activity
same,amylin antagonist action in the soleus muscle assay,[3],act as amylin antagonists
"^8-37 CGRP (VTHRLAGLLSRSGGVVKNNFVPTNVGSKAF; ends and bridges not checked; UniProt P06881 90-119, looked up, fragment) [reference compound]",agonist activity in the soleus muscle assay,[3],negligible agonist activity
same,amylin antagonist action in the soleus muscle assay,[3],act as amylin antagonists
same,insulin concentration 30 minutes following arginine infusion versus normal controls,[4],almost twice as high
"rat amylin: Synthetic rat amylin (Bachem, Torrance, Calif.)",change in mean arterial pressure,[5],lack of change; also recorded: not associated with any significant change
^8-32 calcitonin(salmon),agonist activity in the soleus muscle assay,[3],negligible agonist activity
same,amylin antagonist action in the soleus muscle assay,[3],act as amylin antagonists
